Test: xn = mol fraction of the nth substance listed
Conditions: 101 kPa, Liquid; for speed of sound: Pulse-echo method

C1CCCCC1 [cyclohexane] + COC(=O)c1ccccc1
x2 = 0
Conditions	mass density [kg/m3]	speed of sound [m/s]	viscosity [mPa·s]
303.15 K	768.3	1228	0.823
308.15 K	764.4	1208	0.772
313.15 K	760.5	1188	0.685

CCCCCCC [heptane] + COC(=O)c1ccccc1
x2 = 0
Conditions	mass density [kg/m3]	speed of sound [m/s]	viscosity [mPa·s]
303.15 K	674.5	1116	0.375
308.15 K	670.3	1092	0.35
313.15 K	667.2	1072	0.325

CCCCCC [hexane] + COC(=O)c1ccccc1
x2 = 0
Conditions	mass density [kg/m3]	speed of sound [m/s]	viscosity [mPa·s]
303.15 K	649.8	1048	0.283
308.15 K	645.9	1028	0.269
313.15 K	642.2	1008	0.252

COC(=O)c1ccccc1 [methyl benzoate] + C1CCCCC1
Conditions	mass density, 303.15 K [kg/m3]	mass density, 308.15 K [kg/m3]	mass density, 313.15 K [kg/m3]	speed of sound, 303.15 K [m/s]	speed of sound, 308.15 K [m/s]	speed of sound, 313.15 K [m/s]	viscosity, 303.15 K [mPa·s]	viscosity, 308.15 K [mPa·s]	viscosity, 313.15 K [mPa·s]
x1 = 0.088	796.9	793	789.1	1240	1220	1200	0.802	0.74	0.675
x1 = 0.1777	825.9	822.1	818.2	1252	1232	1212	0.82	0.757	0.704
x1 = 0.2692	855.8	851.9	848.1	1264	1244	1224	0.854	0.792	0.736
x1 = 0.3668	887.5	883.6	879.7	1276	1260	1240	0.905	0.84	0.781
x1 = 0.4667	918.8	915	911.1	1292	1276	1256	0.977	0.904	0.835
x1 = 0.5639	950	946.1	942.2	1308	1292	1276	1.076	0.999	0.932
x1 = 0.6675	981.7	978	974.1	1324	1308	1292	1.181	1.09	1.004
x1 = 0.7727	1013.3	1009.5	1005.5	1340	1324	1312	1.308	1.197	1.097
x1 = 0.8859	1046.1	1042.2	1038.3	1360	1344	1332	1.478	1.363	1.234
x1 = 1	1078.3	1074.4	1070.3	1380	1364	1348	1.667	1.514	1.376
